{"source": "patent US20100317672A1", "about": "“Monomaleate Monohydrate Salt of a 5HT1A Receptor Antagonist” (GLAXO GROUP LIMITED, priority 2008, published 2010)", "key": {"5-HT1A receptor": {"target": "T1, 5-HT1A receptor (Homo sapiens, UniProt P08908)", "T1 sequence (P08908 1-422)": "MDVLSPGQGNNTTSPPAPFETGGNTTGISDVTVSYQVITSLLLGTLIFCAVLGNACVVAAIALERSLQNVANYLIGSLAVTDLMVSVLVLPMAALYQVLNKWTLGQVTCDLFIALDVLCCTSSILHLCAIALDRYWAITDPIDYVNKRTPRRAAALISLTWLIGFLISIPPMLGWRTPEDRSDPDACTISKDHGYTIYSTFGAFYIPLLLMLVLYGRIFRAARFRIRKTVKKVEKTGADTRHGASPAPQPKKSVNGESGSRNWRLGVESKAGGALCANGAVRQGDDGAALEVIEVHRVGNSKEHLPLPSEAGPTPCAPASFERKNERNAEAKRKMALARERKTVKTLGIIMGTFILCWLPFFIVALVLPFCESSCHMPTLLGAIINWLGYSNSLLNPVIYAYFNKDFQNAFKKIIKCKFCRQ", "experiment": "antagonism of the 5-HT1A receptor (stated in words, no method)", "format": "biochemical"}, "5-HT1B receptor": {"target": "5-HT1B receptor (Homo sapiens, UniProt P28222)", "sequence (P28222 whole entry)": "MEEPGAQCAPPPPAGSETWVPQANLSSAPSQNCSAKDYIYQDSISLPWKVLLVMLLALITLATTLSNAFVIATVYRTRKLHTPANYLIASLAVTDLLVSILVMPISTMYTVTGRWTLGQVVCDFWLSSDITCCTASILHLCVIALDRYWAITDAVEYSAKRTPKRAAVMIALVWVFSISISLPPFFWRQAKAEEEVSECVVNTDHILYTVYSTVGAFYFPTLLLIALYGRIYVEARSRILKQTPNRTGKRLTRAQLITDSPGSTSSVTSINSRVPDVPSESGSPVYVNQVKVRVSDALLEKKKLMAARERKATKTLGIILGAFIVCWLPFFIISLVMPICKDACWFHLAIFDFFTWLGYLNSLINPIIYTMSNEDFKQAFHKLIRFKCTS", "experiment": "antagonism of the 5-HT1B receptor, selectivity comparison (stated in words, no method)", "format": "biochemical", "conditions": "better antagonist of 5-HT1A than of 5-HT1B"}, "[1]": {"experiment": "solubility of the free base (stated in words, no method)", "format": "physicochemical", "conditions": "said to be therefore not readily bioavailable"}, "[2]": {"experiment": "hygroscopicity of the dihydrochloride salt (stated in words, no method)", "format": "physicochemical", "conditions": "shows variable stoichiometry"}}, "note": "Structures can show the parent of a compound that is named as a salt."}
{"smiles": "Cc1ccc2c(N3CCN(CCc4c(C)ccc5c4CCc4c(C(N)=O)ncn4-5)CC3)cccc2n1.O.O=C(O)/C=C\\C(=O)O", "note": "[salt of the invention, 7-methyl-6-{2-[4-(2-methyl-5-quinolinyl)-1-piperazinyl]ethyl}-4,5-dihydroimidazo[1,5-a]quinoline-3-carboxamide monomaleate monohydrate]", "values": [{"measurement": "antagonist of the 5-HT1A receptor", "setting": "5-HT1A receptor", "result": "effective antagonist"}, {"measurement": "selectivity for the 5-HT1A receptor over the 5-HT1B receptor", "setting": "5-HT1B receptor", "result": "high selectivity"}]}
{"smiles": "Cc1ccc2c(N3CCN(CCc4c(C)ccc5c4CCc4c(C(N)=O)ncn4-5)CC3)cccc2n1", "note": "[free base, 7-methyl-6-{2-[4-(2-methyl-5-quinolinyl)-1-piperazinyl]ethyl}-4,5-dihydroimidazo[1,5-a]quinoline-3-carboxamide]", "values": [{"measurement": "solubility", "setting": "[1]", "result": "insoluble"}]}
{"smiles": "Cc1ccc2c(N3CCN(CCc4c(C)ccc5c4CCc4c(C(N)=O)ncn4-5)CC3)cccc2n1", "note": "[dihydrochloride salt, 7-methyl-6-{2-[4-(2-methyl-5-quinolinyl)-1-piperazinyl]ethyl}-4,5-dihydroimidazo[1,5-a]quinoline-3-carboxamide]", "values": [{"measurement": "hygroscopicity", "setting": "[2]", "result": "hygroscopic"}]}
